Earlier results in patent US20150182535A1, “Antimicrobial Composition for the Treatment of Methicillin-resistant Staphylococcus aureus” (priority 2014, published 2015).

Test system: humans

In the case of `C[C@H]1[C@H](N2CCS(=O)(=O)CC2)O[C@@H]2O[C@@]3(C)CC[C@H]4[C@H](C)CC[C@@H]1[C@@]24OO3` [Artemisone], the toxicity (general statement in words) is listed as “very low toxicity”.

For `C[C@H]1[C@H](OC(=O)CCC(=O)O)O[C@@H]2O[C@@]3(C)CC[C@H]4[C@H](C)CC[C@@H]1[C@@]24OO3` [artesunate], the “safety relative to artemether” value is listed as “twice as safe” and the “toxicity relative to chloroquinine” value is listed as “one-fiftieth”.
